The nature of assay [1]: Resistance index, ratio of IC50 for human K562/ADR cells to IC50 for human K562 cells. The format is functional.
For assay [2], the system named is K562/Adr. Kind of assay: Potency index, ratio of doxorubicin IC50 to compound IC50 for human K562/ADR cells. The format is functional.
For assay [3], the system named is K562/Adr. Kind of assay: Cytotoxicity against human K562/ADR cells incubated for 72 hrs by CCK8 assay. Format: functional, cell-based.
Assay [4] deals with K562. Kind of assay: Potency index, ratio of doxorubicin IC50 to compound IC50 for human K562 cells. Format: functional.
For assay [5], the system named is K562. Kind of assay: Cytotoxicity against human K562 cells incubated for 72 hrs by CCK8 assay. The format is functional, cell-based. The note with it: K562, 72 h.
In assay [6] the test system is HepG2. The experiment in a line: Antiproliferative activity against human HepG2 cells incubated for 3 days by MTT assay. Format: functional, cell-based. The conditions noted are these: HepG2, 72 h.
The subject of assay [7] is A549. Kind of assay: Antiproliferative activity against human A549 cells incubated for 3 days by MTT assay. The format is functional, cell-based. The note with it: A549, 72 h.
Assay [8] concerns HCT-116. Kind of assay: Antiproliferative activity against human HCT116 cells incubated for 3 days by MTT assay. The format is functional, cell-based. The note with it: HCT-116, 72 h.
Assay [9] concerns HeLa. The experiment in a line: Antiproliferative activity against human HeLa cells by MTT assay. The format is functional, cell-based.
For assay [10], the system named is K562/A02. The experiment in a line: Antiproliferative activity against human K562/A02 cells by MTT assay. Format: functional, cell-based.
Assay [11] relates to A549. Kind of assay: Antiproliferative activity against human A549 cells incubated for 24 hrs by MTT assay. The conditions noted are these: A549, 24 h. The format is functional, cell-based.
For assay [12], the system named is HeLa. The experiment in a line: Antiproliferative activity against human HeLa cells incubated for 24 hrs by MTT assay. Format: functional, cell-based.
Assay [13] concerns Calu-1. The experiment in a line: Antiproliferative activity against human Calu-1 cells incubated for 24 hrs by MTT assay. The conditions noted are these: Calu-1, 24 h. The format is functional, cell-based.
The subject of assay [14] is A549. Kind of assay: Antiproliferative activity against human A549 cells incubated for 72 hrs by MTT assay. The note with it: A549, 72 h. The format is functional, cell-based.
The subject of assay [15] is SMMC-7721. Kind of assay: Antiproliferative activity against human SMMC-7721 cells incubated for 48 hrs by MTT assay. The format is functional, cell-based. The note with it: SMMC-7721, 48 h.
Assay [16] has as its system MCF7. The experiment in a line: Antiproliferative activity against human MCF7 cells incubated for 48 hrs by MTT assay. The format is functional, cell-based. The note with it: MCF7, 48 h.
In assay [17] the test system is HL-60. The experiment in a line: Antiproliferative activity against human HL-60 cells incubated for 48 hrs by MTT assay. The format is functional, cell-based. The note with it: HL-60, 48 h.
In assay [18] the test system is SW480. Kind of assay: Antiproliferative activity against human SW480 cells incubated for 48 hrs by MTT assay. The format is functional, cell-based. The note with it: SW480, 48 h.
For assay [19], the system named is K562/A02. Kind of assay: Cytotoxicity against human K562/A02 cells by SRB assay. Format: functional, cell-based.

Consider `COc1cc([C@@H]2c3cc4c(cc3[C@@H](OC(=O)/C=C/c3ccccc3)[C@H]3COC(=O)[C@H]23)OCO4)cc(OC)c1OC`, for which the “Ratio IC50” value in assay [1] is reported as 1.1; in [2], 2.2; in [4], 2.2. In addition, the IC50 in assay [3] and in [5] was 11 nM in each case.
For the compound `COc1cc([C@@H]2c3cc4c(cc3[C@@H](NC(=S)NC(=O)c3ccc(Cl)cc3)[C@H]3COC(=O)[C@H]23)OCO4)cc(OC)c1OC`, the 50% inhibitory concentration (IC50) in [6], in assay [7] and in assay [8] was 100 nM in each case.
With `COc1cc([C@@H]2c3cc4c(cc3[C@@H](NC(=S)NC(=O)c3cccs3)[C@H]3COC(=O)[C@H]23)OCO4)cc(OC)c1OC`, the half-maximal inhibitory concentration (IC50) in assay [6], in assay [7] and in assay [8] was 100 nM in each case.
With `COc1cc([C@@H]2c3cc4c(cc3[C@@H](NC(=S)NC(=O)c3ccc(F)cc3)[C@H]3COC(=O)[C@H]23)OCO4)cc(OC)c1OC`, the IC50 in [6], in [7] and in [8] was 100 nM each time.
In the case of `C=CC(=O)O[C@@H]1c2cc3c(cc2[C@@H](c2cc(OC)c(OC)c(OC)c2)[C@H]2C(=O)OC[C@@H]21)OCO3`, the figures for the “Ratio IC50” value in assay [1], in assay [2] and in assay [4] were 1.1, 2.2 and 2.2, respectively. Besides, the IC50 in assay [3] and in assay [5] was 11 nM throughout.
As to `COc1cc([C@@H]2c3cc4c(cc3[C@@H](NCc3cc5cc(F)ccc5[nH]3)[C@H]3COC(=O)[C@H]23)OCO4)cc(OC)c1OC`, the IC50 in [9] and in assay [10] was 100 nM throughout.
For the compound `COc1cc([C@@H]2c3cc4c(cc3[C@@H](NC(=S)NC(=O)c3ccccc3Br)[C@H]3COC(=O)[C@H]23)OCO4)cc(OC)c1OC`, the half-maximal inhibitory concentration (IC50) in [6], in assay [7] and in assay [8] was 100 nM each time.
Regarding `COc1cc([C@@H]2c3cc4c(cc3[C@@H](NC(=S)NC(=O)c3cccc5ccccc35)[C@H]3COC(=O)[C@H]23)OCO4)cc(OC)c1OC`, the IC50 in assay [6], in assay [7] and in [8] was 100 nM in each case.
As to `COc1cc([C@@H]2c3cc4c(cc3[C@H](OC(=O)/C=C/c3ccc(F)cc3)[C@H]3COC(=O)[C@H]23)OCO4)cc(OC)c1OC`, the “Ratio IC50” value in assay [1] is 1.1. Also, the IC50 in [3] and in [5] was 11 nM each time.
With `COc1ccc(C2SCCC(CCCCC(=O)O[C@H]3c4cc5c(cc4[C@@H](c4cc(OC)c(OC)c(OC)c4)[C@H]4C(=O)OC[C@@H]43)OCO5)S2)cc1O` (stereo partly drawn), the IC50 in assay [11], in [12] and in assay [13] was 2680 nM in each case.
`COc1cc([C@@H]2c3cc4c(cc3[C@H](OC(=O)/C=C/c3ccc(C)cc3)[C@H]3COC(=O)[C@H]23)OCO4)cc(OC)c1OC`: the “Ratio IC50” value in assay [1] stood at 1.1. The IC50 in assay [3] and in assay [5] was 11 nM throughout.
Consider `COc1ccc2[nH]c(CN[C@@H]3c4cc5c(cc4[C@@H](c4cc(OC)c(OC)c(OC)c4)[C@H]4C(=O)OC[C@@H]43)OCO5)cc2c1`, for which the IC50 in assay [9] and in [10] was 100 nM in each case.
In the case of `COc1cc([C@@H]2c3cc4c(cc3[C@@H](NC(=S)NC(=O)c3cccc(C)c3)[C@H]3COC(=O)[C@H]23)OCO4)cc(OC)c1OC`, the concentration for half-maximal inhibition (IC50) in assay [6], in assay [7] and in assay [8] was 100 nM throughout.
Turning to `COc1cc([C@@H]2c3cc4c(cc3[C@@H](NC(=S)NC(=O)c3cccc(Cl)c3)[C@H]3COC(=O)[C@H]23)OCO4)cc(OC)c1OC`, the IC50 in assay [6], in assay [7] and in assay [8] was 100 nM each time.
`COc1cc([C@@H]2c3cc4c(cc3[C@@H](NC(=S)NC(=O)c3ccccc3C)[C@H]3COC(=O)[C@H]23)OCO4)cc(OC)c1OC`: the IC50 in assay [6], in assay [7] and in [8] was 100 nM throughout.
On to `COc1cc([C@@H]2c3cc4c(cc3[C@@H](NC(=S)NC(=O)c3ccccc3Cl)[C@H]3COC(=O)[C@H]23)OCO4)cc(OC)c1OC`, for which the IC50 in assay [6], in [7] and in [8] was 100 nM throughout.
As for `CCCC(=O)OC[C@H]1O[C@H](OCc2cn([C@@H]3c4cc5c(cc4[C@@H](c4cc(OC)c(O)c(OC)c4)[C@H]4C(=O)OC[C@@H]43)OCO5)nn2)[C@H](OC(=O)CCC)[C@@H](OC(=O)CCC)[C@H]1OC(=O)CCC`, the IC50 in assay [14], in assay [15], in assay [16], in [17] and in assay [18] was 490 nM each time.
For `COc1cccc(/C=C/C(=O)O[C@H]2c3cc4c(cc3[C@@H](c3cc(OC)c(OC)c(OC)c3)[C@H]3C(=O)OC[C@@H]32)OCO4)c1`, the “Ratio IC50” value in [1] was determined as 1.1. For the same compound, the IC50 in assay [3] and in assay [5] was 11 nM in each case.
`COc1cc([C@@H]2c3cc4c(cc3[C@H](OC(=O)CCCCC3CCSC(c5ccc(Br)cc5)S3)[C@H]3COC(=O)[C@H]23)OCO4)cc(OC)c1OC` (stereo partly drawn): the IC50 in assay [11], in [12] and in assay [13] was 2680 nM throughout.
For `COc1ccc(/C=C/C(=O)O[C@@H]2c3cc4c(cc3[C@@H](c3cc(OC)c(OC)c(OC)c3)[C@H]3C(=O)OC[C@@H]32)OCO4)cc1OC`, the “Ratio IC50” value was 1.1 in [1], 2.2 in [2] and 2.2 in assay [4]. In addition, the IC50 in [3] and in assay [5] was 11 nM throughout.
Take `COc1cc([C@@H]2c3cc4c(cc3[C@H](OC(=O)CCCCC3CCSC(c5ccc(Cl)cc5Cl)S3)[C@H]3COC(=O)[C@H]23)OCO4)cc(OC)c1OC` (stereo partly drawn): the IC50 in [11], in [12] and in [13] was 2680 nM each time.
As to `COc1cc([C@@H]2c3cc4c(cc3[C@H](OC(=O)CCCCC3CCSC(c5cccc(Cl)c5Cl)S3)[C@H]3COC(=O)[C@H]23)OCO4)cc(OC)c1OC` (stereo partly drawn), the half-maximal inhibitory concentration (IC50) in assay [11], in [12] and in assay [13] was 2680 nM each time.
Regarding `COc1cc([C@@H]2c3cc4c(cc3[C@H](OC(=O)/C=C/c3ccco3)[C@H]3COC(=O)[C@H]23)OCO4)cc(OC)c1OC`, in [1], the “Ratio IC50” value came out at 1.1. In addition, the IC50 in [3] and in [5] was 11 nM in each case.
As to `COc1cc([C@@H]2c3cc4c(cc3[C@H](OC(=O)/C=C/c3ccc(Cl)cc3)[C@H]3COC(=O)[C@H]23)OCO4)cc(OC)c1OC`, in assay [1], the “Ratio IC50” value came to 1.1. In addition, the IC50 in assay [3] and in assay [5] was 11 nM throughout.
Take `COc1ccc(/C=C/C(=O)O[C@H]2c3cc4c(cc3[C@@H](c3cc(OC)c(OC)c(OC)c3)[C@H]3C(=O)OC[C@@H]32)OCO4)cc1`: the “Ratio IC50” value in assay [1] worked out at 1.1. The IC50 in assay [3] and in [5] was 11 nM throughout.
For the compound `COc1cc([C@@H]2c3cc4c(cc3[C@@H](OC(=O)/C=C/c3ccc([N+](=O)[O-])cc3)[C@H]3COC(=O)[C@H]23)OCO4)cc(OC)c1OC`, the entries for the “Ratio IC50” value in [1], in assay [2] and in assay [4] were 1.1, 2.2 and 2.2, respectively. The IC50 in assay [3] and in assay [5] was 11 nM each time.
On to `COc1cc([C@@H]2c3cc4c(cc3[C@H](OC(=O)/C=C/c3cccc(Cl)c3)[C@H]3COC(=O)[C@H]23)OCO4)cc(OC)c1OC`, for which the “Ratio IC50” value in [1] stood at 1.1. Besides, the half-maximal inhibitory concentration (IC50) in assay [3] and in [5] was 11 nM in each case.
On to `COc1cc([C@@H]2c3cc4c(cc3[C@@H](NC(=S)NC(=O)c3ccccc3I)[C@H]3COC(=O)[C@H]23)OCO4)cc(OC)c1OC`, for which the IC50 in assay [6], in assay [7] and in assay [8] was 100 nM in each case.
Turning to `COc1cc([C@@H]2c3cc4c(cc3[C@@H](OC(=O)/C=C/c3ccco3)[C@H]3COC(=O)[C@H]23)OCO4)cc(OC)c1OC`, the “Ratio IC50” value in assay [1] is recorded as 1.1; in [2] it was 2.2; in assay [4], 2.2. Moreover, the IC50 in assay [3] and in [5] was 11 nM each time.
In the case of `COc1ccc2c(c1)cc(/C=N/[C@@H]1c3cc4c(cc3[C@@H](c3cc(OC)c(OC)c(OC)c3)[C@H]3C(=O)OC[C@@H]31)OCO4)n2Cc1ccccc1F`, in assay [9], the IC50 amounted to 650 nM.
Take `COc1cc([C@@H]2c3cc4c(cc3[C@@H](N)[C@H]3COC(=O)[C@H]23)OCO4)cc(OC)c1OC` [4BETA-NH2-PODOPHYLLOTOXIN]: the IC50 in [6], in [7] and in assay [8] was 100 nM each time.
In assay [3], `COc1cccc2c1C(=O)c1c(O)c3c(c(O)c1C2=O)C[C@@](O)(C(=O)CO)C[C@@H]3O[C@H]1C[C@H](N)[C@H](O)[C@H](C)O1` [DOXORUBICIN] returned an IC50 of 220 nM. The same compound displayed a GI50 in [19] of 14300 nM.

These data come from ChEMBL document CHEMBL4818987, “Recent advances of podophyllotoxin/epipodophyllotoxin hybrids in anticancer activity, mode of action, and structure-activity relationship: An update (2010-2020)” (Eur J Med Chem, 2020).
